Results published in PubChem BioAssay (NCI).
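48-hour exposure; five concentrations; linearly interpolated endpoints. Abbreviation: GI50, concentration required for 50% inhibition of growth. TGI: total growth inhibition.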

Key:
Assay in all cases: NCI tumour cell line growth inhibition, 48 h
XF 498 CNS = test system: XF 498 CNS
DMS 273 small cell lung = test system: DMS 273 small cell lung
LXFL 529 NSCLC = test system: LXFL 529 NSCLC
RXF-631 renal = test system: RXF-631 renal
MDA-MB-435 = test system: MDA-MB-435
HS 578T breast = test system: HS 578T breast
T-47D breast = test system: T-47D breast
MDA-N = test system: MDA-N
MCF7 breast = test system: MCF7 breast

Row | SMILES | TGI (DMS 273 small cell lung) [µM] | TGI (LXFL 529 NSCLC) [µM] | TGI (MDA-MB-435) [µM] | TGI (HS 578T breast) [µM] | TGI (T-47D breast) [µM] | TGI (MDA-N) [µM] | TGI (MCF7 breast) [µM] | GI50 (MDA-MB-435) [µM] | GI50 (HS 578T breast) [µM] | GI50 (T-47D breast) [µM] | GI50 (MCF7 breast) [µM] | also measured
1 | Cc1ccc(C)c(NC(=O)/C(=N\NC(N)=S)C(C#N)c2ccccc2)c1 (configuration not stated) | > 100 | > 100 | – | – | – | – | – | – | – | – | – | TGI (XF 498 CNS): > 100 µM
2 | CCCCCCCCCCCCC(SCCNC(=O)CCNC(=O)C(O)C(C)(C)COP(=O)(O)OP(=O)(O)OCC1OC(n2cnc3c(N)ncnc32)C(O)C1OP(=O)(O)O)C(=O)NCC(N)=O (configuration not stated) | > 100 | > 100 | – | – | – | – | – | – | – | – | – | TGI (RXF-631 renal): > 100 µM
3 | Cn1c2ccccc2n2c3nc4ccccc4nc3c(C#N)c12 | > 100 | > 100 | > 100 | > 100 | > 100 | > 100 | > 100 | – | – | – | – | TGI (XF 498 CNS): > 100 µM
4 | O=C(O)c1nnsc1COCc1ccccc1 | – | – | > 100 | > 100 | > 100 | > 100 | > 100 | – | – | – | – | –
5 | O=C(O)C(Cc1ccc(O)c([N+](=O)[O-])c1)N1C(=O)c2ccccc2C1=O (configuration not stated) | – | – | > 100 | > 100 | > 100 | > 100 | > 100 | – | – | – | – | –
6 | CCCCCCCCCCCC(=O)C1=C(O)C(O)CCC1=O (configuration not stated) | 21.3 | 53.9 | – | – | – | – | – | – | – | – | – | TGI (XF 498 CNS): 26.4 µM
7 | CCN(CC)CC(C)Nc1ccc(C)c2sc3ccccc3c(=O)c12 (configuration not stated) | – | – | 11.9 | 9 | 19.4 | – | 6.96 | 3.37 | 2.29 | 3.28 | 2.1 | –
8 | Cc1ccc(S(=O)(=O)ON/N=C2/C3OC3[C@@H]3CCCC[C@H]23)cc1 (some centres not stated) | > 100 | > 100 | – | – | – | – | – | – | – | – | – | TGI (XF 498 CNS): > 100 µM
9 | CC1(C)C(=O)/C(=C\c2ccco2)C[C@]2(C)[C@H]3CC=C4[C@@H]5C[C@](C)(C(=O)O)CC[C@]5(C)CC[C@@]4(C)[C@]3(C)CC[C@@H]12 | – | – | 30.3 | > 100 | 35.1 | – | 26.2 | 12.1 | 18.4 | 5.66 | 5.42 | –
10 | O=C(Nc1ccc(Br)cc1)c1cc(Br)cc(Br)c1O | – | – | 6.09 | 7.74 | 28.4 | – | > 100 | 2.27 | 2.71 | 2.74 | 2.46 | –
11 | CC(C)(C)C([O-])=C1C(=O)c2ccccc2C1=O.CC(C)(C)C([O-])=C1C(=O)c2ccccc2C1=O.CC[O-].CC[O-].[Ti+4] | > 100 | > 100 | – | – | – | – | – | – | – | – | – | GI50 (DMS 273 small cell lung): 31.2 µM; GI50 (LXFL 529 NSCLC): 39.9 µM
12 | CCOC(=O)/C(C1=CC(=O)C(=O)c2ccccc21)=C(/C)NCc1ccccc1 | – | – | 0.476 | 6.96 | > 100 | – | 4.75 | 0.226 | 2.54 | 2.27 | 2.05 | –
13 | CC1(C)OC2C(=O)OC(COCc3ccccc3)C2O1 (configuration not stated) | > 100 | > 100 | – | – | – | – | – | – | – | – | – | TGI (RXF-631 renal): > 100 µM
14 | O=S(=O)(O)c1ccc2cc(N=Nc3cc(S(=O)(=O)O)c4cccnc4c3O)ccc2c1 | – | – | > 100 | > 100 | > 100 | > 100 | > 100 | – | – | – | – | –
15 | COc1ccc(N=Cc2ccc(N(CCC#N)CCC#N)cc2)cc1 | > 100 | > 84.5 | > 100 | > 100 | > 100 | > 100 | > 100 | – | – | – | – | TGI (XF 498 CNS): > 100 µM
16 | Cn1c(=O)c2c(nc3n2CCC(=O)N3)n(C)c1=O | > 100 | > 100 | – | – | – | – | – | – | – | – | – | TGI (RXF-631 renal): > 100 µM
17 | O=C(/C=C/c1ccc([N+](=O)[O-])o1)NNC(=O)c1cc2ccccc2cc1O | – | – | – | > 100 | 5.77 | – | > 100 | 0.644 | 6.21 | 1.51 | 0.824 | –
18 | NC(N)=N/N=C/c1c(-c2cc(Cl)sc2Cl)nc2n1CCS2 | – | – | 19.7 | 21.8 | – | – | 25.3 | 11.1 | 9.23 | – | 10.6 | –
19 | Cc1ccc(-n2c(C)nc3c2C(=O)c2ccccc2C3=O)cc1 | > 100 | > 100 | – | – | – | – | – | – | – | – | – | TGI (XF 498 CNS): > 100 µM
20 | Cc1ccc2c(c1)sc(-c1ccc(N(C)C)cc1)[n+]2C | – | – | 13 | > 87.7 | 5.59 | – | 28.3 | 0.879 | 6.39 | 0.299 | 0.745 | –
21 | OCCCNCc1ccccn1 | – | – | > 100 | > 100 | > 100 | > 100 | > 100 | – | – | – | – | –
22 | CCOC(=O)/C=C/c1ccc(C(=O)OCC)[nH]1 | – | – | 2.29 | 22.3 | > 100 | – | > 100 | 0.393 | 2.43 | 6.32 | 3.06 | –
23 | c1c[nH]c(Cc2ncc(Cc3cnc[nH]3)[nH]2)n1 | 67.8 | > 100 | – | – | – | – | – | – | – | – | – | TGI (XF 498 CNS): > 100 µM
24 | OC1CCC(C2C3CCCCC3C3CCCCC3C2C2CCC(O)CC2)CC1 (configuration not stated) | – | – | 24.6 | > 100 | 11 | – | 34.3 | – | – | – | – | –
25 | COC(=O)c1ccc(OCc2ccc3oc(=O)c(-c4ccccc4)nc3c2)cc1 | > 100 | – | – | – | – | – | – | – | – | – | – | TGI (XF 498 CNS): > 100 µM
26 | CN(C)CCNC(=O)c1cccc(CO)c1[N+](=O)[O-] | – | – | > 100 | > 100 | > 100 | > 100 | > 100 | – | – | – | – | –
27 | COC1C(=O)CCC2(CO2)C1(O)C1(C)OC1CCC(C)C (configuration not stated) | – | – | > 100 | > 100 | > 100 | > 100 | > 100 | – | – | – | – | –
28 | C=C(CNCCO)[C@@H]1CC[C@]2(CO)CC[C@]3(C)[C@H](CC[C@@H]4[C@@]5(C)CCC(NCCc6ccc(O)cc6)C(C)(C)[C@@H]5CC[C@]43C)[C@@H]12 (some centres not stated) | – | – | 2.9 | 3.7 | 3.55 | – | 1.48 | 1.51 | 1.49 | 1.74 | 0.339 | –
29 | CCN(CC)C(=S)SSC1CCCCC1 | – | – | 33.1 | 88.2 | 66.4 | – | 30.4 | 15 | 27.4 | 22.2 | 14.4 | –
30 | O=C1C=C(c2cc(Br)c(O)c(Br)c2)/C(=C/c2cc(Br)c(O)c(Br)c2)O1 | – | – | > 75 | > 75 | > 75 | > 75 | > 75 | 33.6 | 33.9 | > 75 | 37 | GI50 (MDA-N): 33 µM
